Measurements reported in ChEMBL document CHEMBL1201862, “PubChem BioAssay data set” (2004).
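The compound was tested at five concentrations on cells cultured in 96-well plates, with a 48-hour exposure period. At the GI50, growth is halved.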 Active and inactive are the calls of the source. No stated cut-off is given here; in the data, active = GI50 up to about 1.1 µM and inactive = higher.

Tests used:
Assay in all cases: NCI-60 cell line screen, 48 h
A549 = tested on: A549
ACHN = tested on: ACHN
COLO 205 = tested on: COLO 205
KM12 = tested on: KM12
LXFL 529 = tested on: LXFL 529
MOLT-4 = tested on: MOLT-4
NCI-H23 = tested on: NCI-H23
OVCAR-5 = tested on: OVCAR-5
OVCAR-8 = tested on: OVCAR-8
SF-268 = tested on: SF-268
SF-539 = tested on: SF-539
SK-MEL-28 = tested on: SK-MEL-28
SK-MEL-2 = tested on: SK-MEL-2
SN12C = tested on: SN12C
SNB-19 = tested on: SNB-19
U-251 = tested on: U-251
NCI-H226 = tested on: NCI-H226
DU-145 = tested on: DU-145
MDA-MB-231 = tested on: MDA-MB-231
MDA-MB-435 = tested on: MDA-MB-435

Measured: GI50

Nc1ccc(C(=O)N/C(=C\c2ccc3c(c2)OCO3)c2nc3ccccc3s2)cc1
inactive: A549 15.5 µM | ACHN 14.2 µM | COLO 205 18.4 µM | KM12 14.8 µM | LXFL 529 10.6 µM | MOLT-4 2.79 µM | NCI-H23 > 10 µM | OVCAR-5 22 µM | OVCAR-8 14.2 µM | SF-268 11.9 µM | SF-539 17.6 µM | SK-MEL-28 13.2 µM | SK-MEL-2 14.8 µM | SN12C 13 µM | SNB-19 15.2 µM | U-251 13.1 µM

COc1ccc(N2C(=O)C3CC(c4ccc(Br)cc4)c4c([nH]c5ccccc45)C3C2=O)cc1 (stereo not given)
inactive: A549 2.71 µM | ACHN 4.51 µM | COLO 205 9.02 µM | KM12 13.1 µM | LXFL 529 4.07 µM | MOLT-4 10.8 µM | NCI-H226 18.6 µM | NCI-H23 11.4 µM | OVCAR-5 22.6 µM | OVCAR-8 2.13 µM | SF-268 6.78 µM | SF-539 3.52 µM | SK-MEL-28 11.5 µM | SK-MEL-2 60.7 µM | SN12C 3.93 µM | SNB-19 3.43 µM

O=C(NC1C2CC3CC(C2)CC1C3)/C(Cl)=C1/Sc2ccccc2NC1=O (stereo not given)
inactive: A549 > 100 µM | ACHN > 95.9 µM | COLO 205 > 100 µM | KM12 > 62.8 µM | LXFL 529 42.5 µM | MOLT-4 16.7 µM | NCI-H226 > 100 µM | NCI-H23 > 100 µM | OVCAR-5 > 100 µM | OVCAR-8 > 100 µM | SF-268 > 100 µM | SF-539 > 100 µM | SK-MEL-28 > 100 µM | SN12C > 100 µM | SNB-19 > 100 µM | U-251 > 100 µM

N#Cc1c2ccccc2c(Cc2ccc3c(c2)OCCOCCOCCOCCOCCO3)c2ccccc12
inactive: A549 4.29 µM | ACHN 9.86 µM | KM12 5.5 µM | LXFL 529 5.46 µM | MOLT-4 2.82 µM | NCI-H226 11.9 µM | NCI-H23 11.4 µM | OVCAR-5 16.4 µM | OVCAR-8 5.65 µM | SF-268 5.28 µM | SF-539 14.1 µM | SK-MEL-28 3.28 µM | SK-MEL-2 6.34 µM | SN12C 10.1 µM | SNB-19 9.66 µM | U-251 9.44 µM

Cc1nc2ccccc2c(=O)n1-c1ccccc1I
inactive: A549 > 100 µM | ACHN > 100 µM | COLO 205 > 100 µM | LXFL 529 90.4 µM | MOLT-4 > 100 µM | NCI-H226 > 100 µM | NCI-H23 > 100 µM | OVCAR-5 > 100 µM | OVCAR-8 > 100 µM | SF-268 > 100 µM | SK-MEL-28 > 100 µM | SK-MEL-2 > 100 µM | SN12C > 100 µM | SNB-19 > 100 µM | U-251 > 100 µM

Cc1cc2nc3c(C(OC4OC(CO)C(O)C(O)C4O)C(O)CO)nn(-c4ccc(F)cc4)c3nc2cc1C (stereo not given)
inactive: ACHN > 100 µM | KM12 > 100 µM | LXFL 529 > 100 µM | MOLT-4 > 100 µM | NCI-H23 > 100 µM | OVCAR-5 > 100 µM | OVCAR-8 > 100 µM | SF-268 > 100 µM | SF-539 > 100 µM | SK-MEL-28 > 100 µM | SN12C > 100 µM | SNB-19 > 100 µM | U-251 > 100 µM

CCOC(=O)C(=O)Nc1c(C)cccc1C
inactive: A549 > 100 µM | ACHN > 100 µM | COLO 205 > 100 µM | KM12 > 100 µM | LXFL 529 > 100 µM | NCI-H226 > 100 µM | NCI-H23 > 100 µM | OVCAR-5 > 100 µM | OVCAR-8 > 100 µM | SF-268 > 100 µM | SF-539 > 100 µM | SK-MEL-28 > 100 µM | SK-MEL-2 > 100 µM | SN12C > 100 µM | SNB-19 > 100 µM | U-251 > 100 µM

O=C[C@]12CC=C3OC4OC5(CCCCC5)OC4[C@H]3[C@H]1C(=O)C=CC2=O (stereo not given in full)
inactive: A549 11.6 µM | ACHN 18.2 µM | KM12 29.4 µM | LXFL 529 19 µM | MOLT-4 2.85 µM | NCI-H226 > 100 µM | NCI-H23 > 10 µM | OVCAR-5 53.3 µM | OVCAR-8 17.6 µM | SF-268 8.71 µM | SF-539 3.55 µM | SK-MEL-28 26.7 µM | SK-MEL-2 33.7 µM | SN12C 52.8 µM | SNB-19 28.4 µM | U-251 22.7 µM

CC(C)C(=O)CC(Sc1ccc(N)cc1)c1ccccc1 (stereo not given)
inactive: A549 28.1 µM | ACHN 20 µM | COLO 205 33.2 µM | DU-145 25.4 µM | KM12 22.5 µM | MDA-MB-231 22.3 µM | MDA-MB-435 13.6 µM | MOLT-4 25.1 µM | NCI-H226 46.5 µM | NCI-H23 21.9 µM | OVCAR-5 29.4 µM | OVCAR-8 25.6 µM | SF-268 28.5 µM | SF-539 30.5 µM | SK-MEL-28 30.8 µM | SK-MEL-2 23.3 µM | SN12C 28.1 µM | SNB-19 48.5 µM | U-251 16.6 µM

CN(c1ccccc1Cl)S(=O)(=O)c1ccc([N+](=O)[O-])cc1
inactive: A549 > 100 µM | ACHN > 100 µM | COLO 205 > 100 µM | DU-145 > 100 µM | KM12 > 100 µM | MDA-MB-231 > 100 µM | MDA-MB-435 > 100 µM | MOLT-4 > 100 µM | NCI-H226 > 100 µM | NCI-H23 > 100 µM | OVCAR-5 > 100 µM | OVCAR-8 > 100 µM | SF-268 > 100 µM | SF-539 > 100 µM | SK-MEL-28 > 100 µM | SK-MEL-2 > 100 µM | SN12C > 100 µM | SNB-19 > 100 µM | U-251 > 100 µM

O=C(c1ccccc1)c1cc[n+](C2=C([N-]S(=O)(=O)c3ccccc3)C(=O)c3ccccc3C2=O)cc1
inactive: A549 14.5 µM | ACHN 12.7 µM | COLO 205 13.7 µM | DU-145 13.9 µM | KM12 12.6 µM | MDA-MB-231 12.9 µM | MDA-MB-435 1.72 µM | MOLT-4 3.05 µM | NCI-H226 15.8 µM | NCI-H23 3.12 µM | OVCAR-5 19.2 µM | OVCAR-8 13 µM | SF-268 11.5 µM | SF-539 12.9 µM | SK-MEL-28 3.22 µM | SK-MEL-2 3 µM | SN12C 6.85 µM | SNB-19 13.8 µM | U-251 4.38 µM

COC(C)(C)/C=C/c1[nH]c2ccccc2c1CC(=O)NCCc1cn(C(c2ccccc2)(c2ccccc2)c2ccccc2)cn1
inactive: A549 3.71 µM | ACHN 4.53 µM | COLO 205 2.02 µM | DU-145 > 31.6 µM | KM12 4.22 µM | MDA-MB-231 4.72 µM | MDA-MB-435 3.62 µM | MOLT-4 2.36 µM | NCI-H226 3.65 µM | NCI-H23 4.41 µM | OVCAR-5 3.66 µM | OVCAR-8 4.99 µM | SF-268 7.91 µM | SF-539 4.13 µM | SK-MEL-28 9.77 µM | SK-MEL-2 2.64 µM | SN12C 3.41 µM | SNB-19 7.5 µM | U-251 4.45 µM
